Test results as given in patent US8071810B2, “C5a receptor antagonists” (Jerini AG, priority 2005, dated 2011).

Columns and labels:
[1] = tested on: E. coli induced oxidative burst in human whole blood; experiment: E. coli induced oxidative burst in human whole blood (Phagoburst kit, Example 26); assay type: cell-based; conditions: read-out: IC50 for the inhibition of the E. coli induced oxidative burst in human whole blood
Procedure: The whole blood assay is carried out according to the instructions from the Phagoburst-Kit (Orpegen Pharma). 50 μg/ml of Refludan is used to inhibit blood clotting (Mollnes et al. 2002 Blood 100: 1869). Freshly drawn, anticoagulated blood is cooled over ice and 100 μl thereof are added to 10 μl of the compound solution containing at most 1.3% of DMSO. The mixture is incubated for 10 minutes at 37° C. After this the samples are put on ice again and 20 μl of opsonisated E. coli suspension (10^9 cells/ml) is added followed by 10 minutes of incubation at 37° C. 20 μl of the substrate are added to the cells followed by another 10 minutes of incubation at 37° C. After this 2 ml of lysis buffer are added to the cells, which are then kept at room temperature for 20 minutes. The cellular components are separated by centrifugation at 250×g for 5 minutes. The supernatant is discarded and 3 ml of washing solution are added to the pellet. The cells are centrifuged again and the resulting pellet is taken up in 200 μl DNA staining solution. The neutrophiles are analysed by means of a FACS device (FACSCalibur, Becton-Dickinson) according to the parameters given in the manual. […] It can be seen that, due to the determined activity, the compounds of this invention are suited to be used as therapeutics in human.

[2] = biological target: T1, human C5a receptor (CD88) (Homo sapiens, UniProt P21730); experiment: Agonism in enzyme release assay without C5a stimulus (Example 32); assay type: cell-based; conditions: concentration applied 7.1 μM
T1 construct: expressed in transfected cells; host or cells: rat basophilic leukemia (RBL) cells, stably transfected
T1 sequence (P21730 1-350): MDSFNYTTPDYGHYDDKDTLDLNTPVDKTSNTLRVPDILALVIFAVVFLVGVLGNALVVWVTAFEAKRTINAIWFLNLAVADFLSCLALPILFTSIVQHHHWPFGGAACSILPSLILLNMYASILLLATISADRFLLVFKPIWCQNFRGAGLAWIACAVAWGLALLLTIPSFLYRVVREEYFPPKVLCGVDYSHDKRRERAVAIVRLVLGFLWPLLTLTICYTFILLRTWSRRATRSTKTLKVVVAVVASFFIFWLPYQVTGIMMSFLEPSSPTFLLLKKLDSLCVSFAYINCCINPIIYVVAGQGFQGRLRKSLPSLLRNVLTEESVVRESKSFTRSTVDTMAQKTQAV
Procedure: The assay has been described by Köhl (Köhl 1997 The Anaphylatoxins. In: Dodds, A. W., Sim, R. B. (Eds.), Complement: A Practical Approach. Oxford: 135). Basophile leukemia cells from rats (RBL), which express the human C5a receptor (CD88), are cultivated in DMEM with 10% fetal calf serum, 100 U/ml penicillin, 100 μg/ml streptomycin and 2 mM glutamin (all constituents are from Biochrome, Berlin) at 37° C. and with 10% CO2 until a confluent layer is obtained. All following details refer to a tissue culture flask with 75 cm^2 surface. The used up medium is removed. The cells are washed with 10 ml PBS (Dulbecco's PBS, Biochrome) and then covered with 3 ml cell dissociation solution (CDS, Sigma). The cells are incubated for 1 minute at room temperature. Then the CDS is removed and the cells are incubated for further 10-15 minutes at 37° C. to detach the cells completely from the flask. 20 μl solution of the compound to be testet are used in the assay. The assay solution must not contain more than 2.8% DMSO. The dilution series are prepared in ⅓ or ½ steps. To the 20 μl of the compound solutions 75 μl RBL cells are added which are prepared as follows: After the detachment of the cells from the flask surface they are taken up with 10 ml HAG-CM (20 mM HEPES; 125 mM NaCl, 5 mM KCl, 1 mM CaCl2, 1 mM MgCl2, 0.5 mM glucose, 0.25% BSA. HEPES preparation: 2.3 g/l HEPES salt+2.66 g/l HEPES acid) thermostated at 37° C. The cells are counted and centrifuged (200 g, 10 min). The cell pellet is taken up with pre-heated HAG-CM, and the cell density is adjusted to 2×10^6 Zellen/ml. The cells are incubated for 5 minutes at 37° C. 2.7 μl of a cytochalasin B solution (1000 μg/ml in DMSO, Sigma) are added per ml cell suspension. The Zellen are incubated for another 3 min at 37° C. Then, 75 μl of the cell suspension are added to the 20 μl solution containing the compounds to be tested. Thus a volume of […] per well is obtained. The cells are again incubated for 10 minutes at 37° C. Then 10 μl hrC5a (10.5 nM in HAG-CM, Sigma) are added per well, which is followed by 5 minutes incubation at 37° C. After this the plates are put on ice and centrifuged for 3 minutes at 1200×g and 4° C. 75 μl of the supernatant are added to 100 μl substrate solution (2.7 mg/ml p-nitrophenyl-N-acetyl-b-D-glucosaminide (Sigma) in 42.5 mM sodium acetate, pH 4.5). The plate is incubated for 1 hour at 37° C. Per well 75 μl 0.4 M glycine (pH 10.4) are added. After this the plate can be measured at a wave length of 405 nm. The IC50 value is determined by solving the four parameter equation y=((A−D)/(1+(x/C)^B))+D.
The only difference is the fact that 30 μl of the substance to be tested are mixed with 75 μl of the cell suspension described in example 28. The cells are not pre-incubated and no C5a is added to stimulate enzyme release.

Question: Which IC50 [1] does the source give for `CCc1c(N)cc(Cl)c(CC)c1NC(=O)N(Cc1ccc(Cl)cc1)c1ccc(CC(F)(F)F)cc1` [compound 103, 3-(3-amino-5-chloro-2,6-diethyl-phenyl)-1-(4-chloro-benzyl)-1-[4-(2,2,2-trifluoro-ethyl)-phenyl]-urea] here?
Answer: 800 nM

Question: What about the “Agonism (% of the maximum enzyme release induced by C5a)” value [2] of the same molecule?
Answer: 0.00%

Question: What does the source list for `CCc1ccc(N(Cc2ccc(C)nc2)C(=O)Nc2c(CC)c(N)cc(Cl)c2CC)cc1` [compound 106, 3-(3-amino-5-chloro-2,6-diethyl-phenyl)-1-(4-ethyl-phenyl)-1-(6-methyl-pyridin-3-ylmethyl)-urea]?
Answer: IC50 [1]: 1600 nM; Agonism (% of the maximum enzyme release induced by C5a) [2]: 0.00%

Question: Which IC50 [1] does the source give for `CCc1ccc(N(C(=O)Nc2c(CC)c(N)cc(Cl)c2CC)C(C)c2ccc3c(c2)ncn3C)cc1` (stereo not drawn) [compound 122, 3-(3-amino-5-chloro-2,6-diethyl-phenyl)-1-(4-ethyl-phenyl)-1-[1-(1-methyl-1H-benzoimidazol-5-yl)-ethyl]-urea] here?
Answer: 3500 nM

Question: What about the “Agonism (% of the maximum enzyme release induced by C5a)” value [2] of the same molecule?
Answer: 0.00%
